Assay results from patent publication US11479546B2, “Antimalarial hexahydropyrimidine analogues” (UCB Biopharma SRL, priority 2018, dated 2022).

Test system: Plasmodium falciparum 3D7
Test: P. falciparum 3D7 asexual blood stage assay, Assay Procedure Version 2 (SYBR green readout)
Type: cell-based
Details: Plasmodium falciparum, 3D7, Erythrocyte, 72 h, Version 2 of the assay procedure (asterisk *); 72 h incubation in infected erythrocytes; 50,000 nM to 15 nM
Method in brief: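 P. falciparum 3D7 in A+ erythrocytes (5% haematocrit, 0.5% parasitaemia) exposed 72 h at 37 °C (1% O2, 3% CO2) to 20-point 1.5-fold titrations, final 50,000–15 nM in 0.5% DMSO. SYBR green in lysis buffer overnight, fluorescence 485/528 nm; % inhibition vs mefloquine and DMSO controls, EC50 from biphasic two-site fit.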

Structure (SMILES) | IC50 [nM]
CC(C)(C)c1ccc(Nc2cccc([C@]3(C)CC(=O)N(C4CCOCC4)C(=N)N3)c2Cl)cn1 [Example 105, (6S)-6-{3-[(6-tert-Butylpyridin-3-yl)amino]-2-chlorophenyl}-2-imino-6-methyl-3-(tetrahydro-pyran-4-yl)hexahydropyrimidin-4-one] | 318
C[C@@]1(c2cccc(Nc3ccc(C4CCC4)nc3)c2Cl)CC(=O)N(C2CCOCC2)C(=N)N1 [Example 106, (6S)-6-{2-Chloro-3-[(6-cyclo-butylpyridin-3-yl)amino]-phenyl}-2-imino-6-methyl-3-(tetrahydropyran-4-yl)-hexahydropyrimidin-4-one] | 374
CC(C)(C)c1cnc(Nc2cccc([C@]3(C)CC(=O)N(C4CCOCC4)C(=N)N3)c2Cl)cn1 [Example 107, (6S)-6-{3-[(5-tert-Butylpyrazin-2-yl)amino]-2-chlorophenyl}-2-imino-6-methyl-3-(tetrahydro-pyran-4-yl)hexahydropyrimidin-4-one] | 863
C[C@@]1(c2cccc(Nc3ccn4ccnc4c3)c2Cl)CC(=O)N(C2CCOCC2)C(=N)N1 [Example 108, (6S)-6-[2-Chloro-3-(imidazo-[1,2-a]pyridin-7-ylamino)-phenyl]-2-imino-6-methyl-3-(tetrahydropyran-4-yl)-hexahydropyrimidin-4-one] | 2040
C[C@@]1(c2cccc(Nc3ccccc3N=S(C)(C)=O)c2Cl)CC(=O)N(C2CCOCC2)C(=N)N1 [Example 109, (6S)-6-[2-Chloro-3-(2-{[dimethyl(oxo)-λ^6-sulfanylidene]amino}anilino)-phenyl]-2-imino-6-methyl-3-(tetrahydropyran-4-yl)-hexahydropyrimidin-4-one] | 814
Cc1cc(Cl)c(Nc2cccc([C@]3(C)CC(=O)N(C4CCOCC4)C(=N)N3)c2Cl)cn1 [Example 110, (6S)-6-{2-Chloro-3-[(4-chloro-6-methylpyridin-3-yl)amino]-phenyl}-2-imino-6-methyl-3-(tetrahydropyran-4-yl)-hexahydropyrimidin-4-one] | 227
CCc1ccc(Nc2cccc([C@]3(C)CC(=O)N(C4CCOCC4)C(=N)N3)c2Cl)cn1 [Example 111, (6S)-6-{2-Chloro-3-[(6-ethyl-pyridin-3-yl)amino]phenyl}-2-imino-6-methyl-3-(tetrahydro-pyran-4-yl)hexahydropyrimidin-4-one] | 248
C[C@@]1(c2cccc(Nc3ccc(OCC(F)(F)F)nc3)c2Cl)CC(=O)N(C2CCOCC2)C(=N)N1 [Example 112, (6S)-6-(2-Chloro-3-{[6-(2,2,2-trifluoroethoxy)pyridin-3-yl]-amino}phenyl)-2-imino-6-methyl-3-(tetrahydropyran-4-yl)hexahydropyrimidin-4-one] | 642
C[C@@]1(c2cccc(Nc3ccc(N4CCC4)nc3)c2Cl)CC(=O)N(C2CCOCC2)C(=N)N1 [Example 113, (6S)-6-(3-{[6-(Azetidin-1-yl)-pyridin-3-yl]amino}-2-chloro-phenyl)-2-imino-6-methyl-3-(tetrahydropyran-4-yl)-hexahydropyrimidin-4-one] | 225
C[C@@]1(c2cccc(Nc3ccc(-n4cncn4)nc3)c2Cl)CC(=O)N(C2CCOCC2)C(=N)N1 [Example 114, (6S)-6-(2-Chloro-3-{[6-(1,2,4-triazol-1-yl)pyridin-3-yl]-amino}phenyl)-2-imino-6-methyl-3-(tetrahydropyran-4-yl)hexahydropyrimidin-4-one] | 519
Cn1ncc2cc(Nc3cccc([C@]4(C)CC(=O)N(C5CCOCC5)C(=N)N4)c3Cl)cnc21 [Example 115, (6S)-6-{2-Chloro-3-[(1-methyl-pyrazolo[3,4-b]pyridin-5-yl)-amino]phenyl}-2-imino-6-methyl-3-(tetrahydropyran-4-yl)hexahydropyrimidin-4-one] | 668
Cn1cnc2cc(Nc3cccc([C@]4(C)CC(=O)N(C5CCOCC5)C(=N)N4)c3Cl)cnc21 [Example 116, (6S)-6-{2-Chloro-3-[(3-methyl-imidazo[4,5-b]pyridin-6-yl)-amino]phenyl}-2-imino-6-methyl-3-(tetrahydropyran-4-yl)hexahydropyrimidin-4-one] | 556
Cn1nnc(-c2ccc(Nc3cccc([C@]4(C)CC(=O)N(C5CCOCC5)C(=N)N4)c3Cl)cn2)n1 [Example 117, (6S)-6-(2-Chloro-3-{[6-(2-methyltetrazol-5-yl)pyridin-3-yl]amino}phenyl)-2-imino-6-methyl-3-(tetrahydropyran-4-yl)hexahydropyrimidin-4-one] | 707
C[C@@]1(c2cccc(Nc3ccc(Cl)cc3S(C)(=O)=O)c2Cl)CC(=O)N(C2CCOCC2)C(=N)N1 [Example 118, (6S)-6-{2-Chloro-3-[4-chloro-2-(methylsulfonyl)anilino]-phenyl}-2-imino-6-methyl-3-(tetrahydropyran-4-yl)-hexahydropyrimidin-4-one] | 138
C[C@@]1(c2cccc(Nc3ccc(CC(F)(F)F)nc3)c2Cl)CC(=O)N(C2CCOCC2)C(=N)N1 [Example 119, (6S)-6-(2-Chloro-3-{[6-(2,2,2-trifluoroethyl)pyridin-3-yl]-amino}phenyl)-2-imino-6-methyl-3-(tetrahydropyran-4-yl)hexahydropyrimidin-4-one] | 237
C[C@@]1(c2cccc(Nc3ccc(C#N)nc3)c2Cl)CC(=O)N([C@H]2C[C@@](C)(O)C2)C(=N)N1 [Example 122, 5-{2-Chloro-3-[(4S)-1-(3-hydroxy-3-methylcyclobutyl)-2-imino-4-methyl-6-oxo-hexahydropyrimidin-4-yl]-anilino}pyridine-2-carbonitrile] | 4510
C[C@@]1(c2cccc(Nc3ccc(C#N)cc3)c2Cl)CC(=O)N([C@H]2C[C@@](C)(O)C2)C(=N)N1 [Example 123, 4-{2-Chloro-3-[(4S)-1-(3-hydroxy-3-methylcyclobutyl)-2-imino-4-methyl-6-oxo-hexahydropyrimidin-4-yl]-anilino}benzonitrile] | 552
C[C@@]1(c2cccc(Nc3ccc(C(F)(F)F)nc3)c2Cl)CC(=O)N([C@H]2C[C@@](C)(O)C2)C(=N)N1 [Example 124, (6S)-6-(2-Chloro-3-{[6-(trifluoromethyl)pyridin-3-yl]-amino}phenyl)-3-(3-hydroxy-3-methylcyclobutyl)-2-imino-6-methylhexahydropyrimidin-4-one] | 509
Cc1ccc(Nc2cccc([C@]3(C)CC(=O)N([C@H]4C[C@@](C)(O)C4)C(=N)N3)c2Cl)cn1 [Example 125, (6S)-6-{2-Chloro-3-[(6-methyl-pyridin-3-yl)amino]phenyl}-3-(3-hydroxy-3-methylcyclo-butyl)-2-imino-6-methyl-hexahydropyrimidin-4-one] | 1100
C[C@@]1(c2cccc(Nc3ccc(F)cn3)c2Cl)CC(=O)N([C@H]2C[C@@](C)(O)C2)C(=N)N1 [Example 126, (6S)-6-{2-Chloro-3-[(5-fluoro-pyridin-2-yl)amino]phenyl}-3-(3-hydroxy-3-methylcyclo-butyl)-2-imino-6-methyl-hexahydropyrimidin-4-one] | 1750
C[C@@]1(c2cccc(Nc3ccc(F)cc3C#N)c2Cl)CC(=O)N([C@H]2C[C@@](C)(O)C2)C(=N)N1 [Example 127, 2-{2-Chloro-3-[(4S)-1-(3-hydroxy-3-methylcyclobutyl)-2-imino-4-methyl-6-oxo-hexahydropyrimidin-4-yl]-anilino}-5-fluorobenzonitrile] | 184
C[C@@]1(c2cccc(Nc3ccc(OC(F)F)nc3)c2Cl)CC(=O)N([C@H]2C[C@@](C)(O)C2)C(=N)N1 [Example 128, (6S)-6-(2-Chloro-3-{[6-(difluoromethoxy)pyridin-3-yl]-amino}phenyl)-3-(3-hydroxy-3-methylcyclobutyl)-2-imino-6-methylhexahydropyrimidin-4-one] | 717
Cc1cnc(Nc2cccc([C@]3(C)CC(=O)N([C@H]4C[C@@](C)(O)C4)C(=N)N3)c2Cl)cn1 [Example 129, (6S)-6-{2-Chloro-3-[(5-methyl-pyrazin-2-yl)amino]phenyl}-3-(3-hydroxy-3-methylcyclo-butyl)-2-imino-6-methyl-hexahydropyrimidin-4-one] | 1330
C[C@@]1(c2cccc(Nc3ccc(OC(F)(F)F)nc3)c2Cl)CC(=O)N([C@H]2C[C@@](C)(O)C2)C(=N)N1 [Example 130, (6S)-6-(2-Chloro-3-{[6-(trifluoromethoxy)pyridin-3-yl]-amino}phenyl)-3-(3-hydroxy-3-methylcyclobutyl)-2-imino-6-methylhexahydropyrimidin-4-one] | 744
C[C@@]1(c2cccc(Nc3ccnc(C(F)(F)F)c3)c2Cl)CC(=O)N([C@H]2C[C@@](C)(O)C2)C(=N)N1 [Example 131, (6S)-6-(2-Chloro-3-{[2-(trifluoromethyl)pyridin-4-yl]amino}phenyl)-3-(3-hydroxy-3-methylcyclobutyl)-2-imino-6-methylhexahydropyrimidin-4-one] | 18300
C[C@@]1(c2cccc(Nc3ccn4nccc4c3)c2Cl)CC(=O)N([C@H]2C[C@@](C)(O)C2)C(=N)N1 [Example 132, (6S)-6-[2-Chloro-3-(pyrazolo-[1,5-a]pyridin-5-ylamino)-phenyl]-3-(3-hydroxy-3-methyl-cyclobutyl)-2-imino-6-methyl-hexahydropyrimidin-4-one] | 623
C[C@@]1(c2cccc(Nc3ccc(C#N)cc3OC(F)F)c2Cl)CC(=O)N([C@H]2C[C@@](C)(O)C2)C(=N)N1 [Example 133, 4-{2-Chloro-3-[(4S)-1-(3-hydroxy-3-methylcyclobutyl)-2-imino-4-methyl-6-oxo-hexahydropyrimidin-4-yl]-anilino}-3-(difluoromethoxy)-benzonitrile] | 562
Cc1ccc(Nc2cccc([C@]3(C)CC(=O)N([C@H]4C[C@](O)(C(C)C)C4)C(=N)N3)c2Cl)cn1 [Example 134, (6S)-6-{2-Chloro-3-[(6-methyl-pyridin-3-yl)amino]phenyl}-3-(3-hydroxy-3-isopropylcyclo-butyl)-2-imino-6-methyl-hexahydropyrimidin-4-one] | 3970
